These results are taken from PubChem BioAssay (NCI).

What all share (assay): NCI-60 cell line screen, 48 h
Experiment [1] concerns OVCAR-8 ovarian.
Experiment [2] deals with SK-MEL-5 melanoma.
Experiment [3] relates to KM12 colon.
Experiment [4] relates to OVCAR-4 ovarian.
Experiment [5] deals with SW-620 colon.
Experiment [6] concerns SN12C renal.
Experiment [7] deals with CAKI-1 renal.
Experiment [8] deals with CCRF-CEM leukemia.

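Interpolation was linear, between the two tested concentrations surrounding the appropriate level; five concentrations were tested over 48 hours in 96-well plates. TGI denotes the concentration required for complete inhibition of growth.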

`CC1=C(C(=O)NCc2ccccc2)C(c2ccccc2C)C(C(=O)NCc2ccccc2)=C(C)N1`: the TGI was 32.8 µM in experiment [1]; over 100 µM in experiment [2]; 58.8 µM in experiment [3]; over 63.7 µM in experiment [4]; over 100 µM in experiment [5]; over 63 µM in experiment [6]. Further, the TGI in experiment [7] and in experiment [8] was over 100 µM in each case.
With `COc1cc2c(cc1O)CN1CCC23C=C[C@@H](O)CC13` (some centres undefined), the TGI in experiment [1], in experiment [2], in experiment [3], in experiment [4], in experiment [5] and in experiment [6] was over 100 µM in each case. Further, the figures for the TGI in experiment [7] and in experiment [8] were over 100 µM and 81.3 µM, respectively.
`Cc1cc(=O)n(-c2c(C)cccc2Cl)c(/C=C(\O)c2ccncc2)n1`: the TGI in experiment [1], in experiment [2], in experiment [3], in experiment [4], in experiment [5] and in experiment [6] was over 100 µM throughout. Further, the TGI in experiment [7] and in experiment [8] was over 100 µM in each case.
For `CC(=O)Nc1ccc(/C=C2\N=C(c3ccccc3)OC2=O)cc1`, the TGI in experiment [2], in experiment [3], in experiment [4], in experiment [5], in experiment [6] and in experiment [8] was over 100 µM each time.
As for `CC(=O)OCC1OC(OCc2ccccc2)C(Br)C(OC(C)=O)C1OC(C)=O` (centres undefined), the TGI in experiment [1], in experiment [2], in experiment [3], in experiment [4], in experiment [5] and in experiment [6] was over 100 µM each time. In addition, the TGI in experiment [7] and in experiment [8] was over 100 µM throughout.
Turning to `CCOC(=O)C(NO)C(Sc1ccccc1)c1ccc(OC)cc1` (centres undefined), the TGI in experiment [1], in experiment [2], in experiment [3], in experiment [5] and in experiment [6] was over 100 µM in each case.
Consider `COc1ccc2c(c1)[n+](=O)c(C(=O)C/C(=N/NC(=O)C[N+](C)(C)C)C(=O)Nc1cccc(C)c1C)c(C)n2O`, for which the TGI in experiment [1], in experiment [3], in experiment [4], in experiment [5], in experiment [6] and in experiment [7] was over 100 µM in each case.
For `COC1OC(CBr)C(OC(=O)c2ccccc2)C(OS(=O)(=O)c2ccc(C)cc2)C1Br` (centres undefined), the TGI in experiment [1], in experiment [3], in experiment [4], in experiment [5], in experiment [6] and in experiment [7] was over 100 µM each time. The same compound showed a TGI in experiment [8] of over 100 µM.
In the case of `CN(NC1OC(CO)C(O)C(O)C1O)c1ccccc1` (centres undefined), the TGI in experiment [1], in experiment [2], in experiment [3], in experiment [4], in experiment [5] and in experiment [7] was over 100 µM throughout. Besides, in experiment [8], the TGI was over 100 µM.
As to `COC1[C@H](NC(=O)OC(C)(C)C)C(=O)N1Cc1ccccc1` (some centres undefined), the TGI in experiment [1], in experiment [2], in experiment [3], in experiment [4], in experiment [5] and in experiment [6] was over 100 µM throughout. Besides, in experiment [8], the TGI is over 100 µM.
On to `CC1CCC(=O)C(C(O)CC2CC(=O)N(c3ccccc3)C(=O)C2)C1` (centres undefined), for which the TGI in experiment [1], in experiment [3], in experiment [4], in experiment [5], in experiment [6] and in experiment [7] was over 100 µM throughout. The same compound displayed a TGI in experiment [8] of over 100 µM.
In the case of `Clc1ccc(OCc2nnc3n2N=C(c2ccc(Br)cc2)CS3)cc1`, the TGI in experiment [1], in experiment [3], in experiment [5], in experiment [6] and in experiment [8] was over 100 µM each time.
For the compound `CCN(CC)CC(=O)NC1c2ccccc2Oc2c(C)cccc21` (centres undefined), the TGI in experiment [1], in experiment [2], in experiment [4], in experiment [5], in experiment [6] and in experiment [8] was over 100 µM each time.
Take `O=C(CO[N+](=O)[O-])OC/C=C/c1ccccc1`: the TGI in experiment [1], in experiment [3], in experiment [5], in experiment [6], in experiment [7] and in experiment [8] was over 100 µM in each case.
